Results on one compound are retold here after patent US8461389B2, “Psycho-pharmaceuticals” (University College Dublin, National University of Ireland, …, priority 2008, dated 2013).

Each structure is given as a SMILES string.

This test relates to C57B16 mice. Nature of the test: Forced swim test. In kind it is in vivo. The settings on record: 3 mg/kg and 5 mg/kg; n=8; FIG. 10B. On the procedure: • 1. Fill a 12 cm diameter glass cylinder to 10 cm with 22° C. water. • 2. Place two animals simultaneously in individual side-by-side cylinders separated by an opaque screen. • 3. Place mice in the cylinders for 6 minutes. • 4. Observe the behaviour of the mice for the last 4-minutes of the 6-minute experimental session. • 5. Sessions are videotaped and scored blind, Immobility is scored by summing the time spent immobile; movements necessary to maintain the animals head above water were not scored with data from treated groups compared with data from the control group using nonpaired Student's t tests (two tailed). • 6. Animals are dried with paper towels and heat lamps. FST in Rats: Habituation Session (Day 1) • 1. On Day 1, […] prior to testing, place the animals in the experimental room 60 min before the beginning of the habituation session. Randomly assign animals to a drug treatment, but give all animals within a cage the same treatment. Make food and water available throughout the experiment. • 2. Weigh two animals individually, then place one rat in each of the two cylinders (20 cm in diameter×40 cm high) containing water (25° C.) for 15 min (habituation session). No scoring of immobility is performed during the habituation session. […]
Values are expressed as mean±S.E.M (n=8). Statistical difference was determined using a Mann Whitney non-parametric U-test. […]

With `CCCCSc1ccc(C(SCCN(C)C)c2ccccc2)cc1` (single isomer, unassigned) [dextrorotary (+) enantiomer], the “antidepressant activity of separated enantiomer (time spent immobile, forced swim test)” value was “retains the antidepressant biologic activity”.
